{"source": "patent US8685372B2", "about": "“Peptides and aptamers for targeting of neuron or nerves” (The Regents of the University of California, priority 2009, dated 2014)", "key": {"sciatic nerves": {"test_system": "sciatic nerves", "assay": "In vivo nerve labeling with fluorescently labeled peptides (nerve versus adjacent non-nerve tissue)", "parameters": "species or system mice", "details": "for Nerve contrast: derivatives of peptide SEQ ID NO: 4; for nerve to muscle contrast: FAM-labeled peptides intravenously, living mice, after wash-out", "procedure": "To test the nerve binding affinity of each of the isolated peptide sequences in vivo, carboxyfluorescein (FAM)-labeled peptides were injected intravenously into living mice. Following a wash-out period, the contrast between nerve and muscle binding of the labeled peptides was evaluated.\nWild-type albino C57BL6 (Jackson Laboratory) or SKH1 (Charles River Laboratories) mice were treated intravenously with 150 nmoles of fluorescently labeled SEQ ID NO:4 via tail vein injection. Following a 2-3 hour wash-out period for SEQ ID NO:25 or 5-6 hours for SEQ ID NO:31, mice were anesthetized with ketamine and midazolam (80 mg/kg intraperitoneally), a skin incision was made over the dorsal surface of the hind, legs and the sciatic nerves exposed bilaterally. […] Nerves and adjacent non-nerve tissue was delineated with Image J and relative fluorescence was measured. Following background subtraction using dark current measurements and measurements of a standard, the ratios of peptide binding to nerve versus adjacent non-nerve tissue were calculated."}, "[1]": {"assay": "Peptide biodistribution and metabolism (organ fluorescence, LC-MS and MALDI of urine)", "assay_type": "in vivo, mice", "procedure": "(§1) To evaluate the biodistribution of the peptide following systemic administration, organs were harvested from mice treated with SEQ ID NO:4 and fluorescence uptake was evaluated. […] To evaluate the metabolism of the peptide as it passed through the renal system, liquid chromatography-mass spectrometry (LC-MS, Agilent) tracing was used to compare urine obtained from mice injected with SEQ ID NO:25 or SEQ ID NO:31 intravenously versus urine from normal mice spiked with the native SEQ ID NO:25 or SEQ ID NO:31. […] Next, matrix-assisted. laser desorption/ionization (MALDI) was used to evaluate the nature of the modification to the peptide as it was metabolized.\nas §1, with “NO:25 and” for “NO:25 or”, “ID NO:3” for “ID NO:31”, “ID NO:25.” for “ID NO:25 or SEQ ID NO:31.”, “Next, matrix-assisted” for “Next, matrix-assisted.”"}, "sciatic nerve": {"test_system": "sciatic nerve", "assay": "Histology: localization of binding in nerves of thy1-YFP transgenic mice", "assay_type": "in vivo", "text": "To evaluate the localization of SEQ ID NO:4 binding in nerves, we treated thy1-YFP transgenic mice whose axons are genetically encoded with YFP under a neuron specific promoter (Feng et al, Imaging neuronal subsets in transgenic mice expressing multiple spectral variants of GFP. Neuron, 2000) with SEQ ID NO:31. […] These deeper nerve structures were not easily seen either with brightfield (FIG. 5A, insert) or YFP (FIG. 5B, insert) imaging. To evaluate the localization of SEQ ID NO:4 binding on a cellular level, we imaged cryosections (3-5 μm) of nerves and attached muscles from thy1-YFP animals treated with SEQ ID NO:31."}, "dissected nerve tissue": {"test_system": "dissected nerve tissue", "assay": "In vitro nerve binding: dissected nerve tissue incubated with peptide", "parameters": "species or system mice", "details": "100 nM peptide, one hour incubation", "description": "To test the nerve binding affinity of each of the isolated peptide sequences in vitro, dissected nerve tissue was removed from mice and incubated for one hour with 100 nM of each peptide, including a control peptide made up of amino acids that were contained within the various phages selected and sequenced, but in a mixed-up order and designed without repeating any single amino acid except for glycine (which was added to the C-terminus as a flexible linker)."}}, "note": "“Also recorded” adds a separate entry of the source. No end group written: not given here. heptamethinecyanine derivative = not defined here; Cy5 = Cy5 cyanine fluorescent dye label; 5,6FAM = 5(6)-carboxyfluorescein label", "data": [{"substance": "acetyl- SHSNTQTLAKAPEHTG-(D-cys)-(5,6FAM)-amide (Ac-SHSNTQTLAKAPEHTG; not fully specified (C-terminus); also: 5,6FAM on C-terminal D-Cys, attachment site not given here)", "values": [{"measurement": "Nerve contrast", "setting": "sciatic nerves", "result": "Medium"}]}, {"substance": "acetyl- SHSNTQTLAKAPEHTG-(L-cys)-(indocyanine green derivative) [SEQ ID NO: 51]", "values": [{"measurement": "Nerve contrast", "setting": "sciatic nerves", "result": "Low"}]}, {"substance": "acetyl- SHSNTQTLAKAPEHTG(L-cys)(5,6FAM)-amide (Ac-SHSNTQTLAKAPEHTGC(5,6FAM)-NH2; not fully specified) [SEQ ID NO: 46]", "values": [{"measurement": "Nerve contrast", "setting": "sciatic nerves", "result": "Medium/High"}]}, {"substance": "ACETYL-SHSNTQTLAKAPEHTG-(L-cys)-(Cy5)-amide (Ac-SHSNTQTLAKAPEHTGC(Cy5)-NH2; also: Cy5 on C-terminal Cys, attachment site not given here) [SEQ ID NO:31]", "values": [{"measurement": "Nerve contrast", "setting": "sciatic nerves", "result": "Medium/High"}, {"measurement": "native peptide detectable in urine of intravenously injected mice", "setting": "[1]; LC-MS", "result": "none"}, {"measurement": "only fluorescently labeled entity identified in urine", "setting": "[1]; MALDI", "result": "cysteine-Cy5"}, {"measurement": "labeling of nerves genetically encoded with YFP", "setting": "sciatic nerve; Cy5 fluorescence versus YFP and brightfield", "result": "precisely labels nerves"}, {"measurement": "localization of labeling within nerve", "setting": "sciatic nerve; cryosections of nerves", "result": "most localized to the epineurium of the nerves with some labeling of the perineurium and endoneurium; also recorded: labeling of epineurium, perineurium and endoneurium"}, {"measurement": "tissue penetration compared to imaging in the visible range", "setting": "sciatic nerve; mouse, in vivo", "result": "deeper tissue penetration"}]}, {"substance": "acetyl- SHSNTQTLAKAPEHTG-(D-cys)-(cy5)-amide (Ac-SHSNTQTLAKAPEHTG; not fully specified (C-terminus))", "values": [{"measurement": "Nerve contrast", "setting": "sciatic nerves", "result": "Medium"}]}, {"substance": "acetyl- SHSNTQTLAKAPEHTG-(L-cys-)-(TAMRA)-amide (Ac-SHSNTQTLAKAPEHTGC(TAMRA)-NH2) [SEQ ID NO: 49]", "values": [{"measurement": "Nerve contrast", "setting": "sciatic nerves", "result": "Medium"}]}, {"substance": "acetyl- SHSNTQTLAKAPEHTG-(L-cys)-(IR800CW) (Ac-SHSNTQTLAKAPEHTGC(IR800CW); not fully specified) [SEQ ID NO: 48]", "values": [{"measurement": "Nerve contrast", "setting": "sciatic nerves", "result": "Low"}]}, {"substance": "AHHNSWKAKHHS (peptide that specifically binds to a neuron, nerve, or component of either) [SEQ ID NO:1]", "values": [{"measurement": "uptake/binding to dissected nerve tissue compared to no peptide or control peptide", "setting": "dissected nerve tissue", "result": "two-fold increase over control to no difference from control"}, {"measurement": "nerve to muscle contrast", "setting": "sciatic nerves", "result": "little significant nerve-to muscle contrast"}]}, {"substance": "Free amine- SHSNTQTLAKAPEHTG-(L-cys)-(5,6FAM)-amide (H-SHSNTQTLAKAPEHTGC(5,6FAM)-NH2; not fully specified) [SEQ ID NO: 47]", "values": [{"measurement": "Nerve contrast", "setting": "sciatic nerves", "result": "Medium/High"}]}, {"substance": "KSLSRHDHIHHH (peptide that specifically binds to a neuron, nerve, or component of either) [SEQ ID NO:3]", "values": [{"measurement": "uptake/binding to dissected nerve tissue compared to no peptide or control peptide", "setting": "dissected nerve tissue", "result": "two-fold increase over control to no difference from control"}, {"measurement": "nerve to muscle contrast", "setting": "sciatic nerves", "result": "exhibited nerve to muscle contrast, although at a lower level than that of SEQ ID NO:4"}]}, {"substance": "acetyl- SHSNTQTLAKAPEHTG-(L-cys)-(heptamethinecyanine derivative) (Ac-SHSNTQTLAKAPEHTGC(heptamethinecyanine derivative); not fully specified; reading uncertain) [SEQ ID NO: 52]", "values": [{"measurement": "Nerve contrast", "setting": "sciatic nerves", "result": "Low"}]}, {"substance": "DFTKTSPLGIH (peptide that specifically binds to a neuron, nerve, or component of either) [SEQ ID NO:5]", "values": [{"measurement": "uptake/binding to dissected nerve tissue compared to no peptide or control peptide", "setting": "dissected nerve tissue", "result": "two-fold increase over control to no difference from control"}, {"measurement": "nerve to muscle contrast", "setting": "sciatic nerves", "result": "exhibited nerve to muscle contrast, although at a lower level than that of SEQ ID NO:4"}]}, {"substance": "acetyl- SHSNTQTLAKAPEHTG-(L-cys)-(Texas Red)-amide (Ac-SHSNTQTLAKAPEHTGC(Texas Red)-NH2) [SEQ ID NO: 50]", "values": [{"measurement": "Nerve contrast", "setting": "sciatic nerves", "result": "Medium"}]}]}
